Literature values as cited in patent US5047247A, “Dispersible tablets of dihydroergotoxine methanesulfonate and of acid addition salts thereof” (LEK, priority 1988, dated 1991).

Row | Substance | solubility in water, in words
1 | dihydroergotoxine methanesulphonate | poorly soluble in water
2 | dihydroergotoxine | poorly soluble in water
